From patent US10836743B2, “Fluorinated cyclopropylamine compound, preparation method therefor, pharmaceutical composition thereof, and uses thereof” (SHANGHAI INSTITUTE OF MATERIA MEDICA, CHINESE ACADEMY OF …, priority 2016, dated 2020)
Where two headings read alike, the source gives them in different places.

Tested on: leukemia cells MV4-11
Test: Inhibitory activity on growth by MTS method
Assay type: cell-based
Details: Homo sapiens
Protocol: 2. Test of Inhibitory Activities of Compound on Growth by MTS Method Experimental Principle:
MTS assay detects the inhibitory effect of the tested compound to the growth of leukemia cells MV (4:11). The principle is that succinate dehydrogenase in mitochondria in living cells can reduce exogenous thiazole blue to insoluble blue crystal Formazan.
• 1. MV4-11 cells in logarithmic growth phase were accurately counted at 16000 cells/mL, and the diluted cell solution was added to 96-well plates at 90 μL per well. • 2. Fresh medium was taken and sequentially added to a 96-well plate with cell fluid at 90 μL per well. • 3. […] 2 μL of the diluted compound was respectively added to a 96-well plate containing 98 μL of blank medium, and for DMSO group, 98 μL of blank medium was added into 2 μL of DMSO, and mixed for further use. • 5. The compound mixed with the medium was separately added to a 96-well plate in which cells were plated, in triplicate, 20 μL per well, and were mixed. The blank group was added with 200 μL of IMDM medium, and the DMSO group was added with 180 μL of the cell-containing medium in DMSO diluted with the medium. • 6. […]

[1] = 72 h, MV4-11, 3 days, read-out: MTS 3 D
[2] = 240 h, MV4-11, 10 days, read-out: MTS 10 D

SMILES	IC50 [1]	IC50 [2]
CS(=O)(=O)N1CCC(F)(CN[C@@H]2C[C@H]2c2ccccc2)CC1 (relative stereo) [Example A93, N-((4-Fluoro-1-(methylsulfonyl)piperidin-4-yl)methyl)-trans-2-phenylcyclopropylamine]	> 20 µM	0.239 ± 0.004 µM
O=C(O)c1ccc(CN2CCC(F)(CN[C@H]3C[C@@H]3c3ccccc3)CC2)cc1 [(1S,2R)-A5, 4-((4-Fluoro-4-((((1S,2R)-2-phenylcyclopropyl)amino)methyl)piperidin-1-yl)methyl)benzoate]	> 20 µM	3.77 ± 1.19 µM
CCc1ccc(Oc2ccc(C3CC3NCC3(F)CCN(C(=O)OCC4CCNCC4)CC3)cn2)cc1 (centres unmarked) [Example A116]	19.4 ± 7.38 µM	7.41 ± 2.53 µM
O=C(OCC1CCNCC1)N1CCC(F)(CNC2CC2c2ccc(-c3ccc(F)cc3)nc2)CC1 (centres unmarked) [Example A118, Piperidin-4-ylmethyl 4-fluoro-4-(((2-(6-(4-fluorophenyl)pyridin-3-yl)cyclopropyl)amino)methyl)piperidine-1-carbox ylate]	> 20 µM	10.2 ± 2.77 µM
CN1CCC(F)(CN[C@@H]2C[C@H]2c2ccccc2)CC1 (relative stereo) [Example A15, N-((4-Fluoro-1-methylpiperidin-4-yl)methyl)-trans-2-phenylcyclopropylamine]	> 20 µM	0.33 ± 0.16 µM
FC1(CN[C@@H]2C[C@H]2c2ccccc2)CCN(Cc2ccccc2)CC1 (relative stereo) [Example A6, N-((1-Benzyl-4-fluoropiperidin-4-yl)methyl)-trans-2-phenylcyclopropylamine]	> 20 µM	1.02 ± 2.44 µM
O=C(O)c1ccc(CN2CCC(F)(CNC3CC3c3ccc(Br)s3)CC2)cc1 (centres unmarked) [Example A102]	> 20 µM	> 20 µM
FC1(CN[C@@H]2C[C@H]2c2ccccc2)CCN(CCCc2ccccc2)CC1 (relative stereo) [Example A12, N-((4-fluoro-1-(3-phenylpropyl)piperidin-4-yl)methyl)-trans-2-phenylcyclopropylamine]	> 20 µM	0.96 µM
O=C(OCC1CCNCC1)N1CCC(F)(CNC2CC2c2ccc(C3CC3)s2)CC1 (centres unmarked) [Example A113, Piperidin-4-ylmethyl 4-(((2-(5-cyclopropylthien-2-yl)cyclopropyl)amino)methyl)-4-fluoropiperidine-1-carboxylate]	> 20 µM	> 20 µM
O=C(OCC1CNC1)N1CCC(F)(CN[C@@H]2C[C@H]2c2ccccc2)CC1 (relative stereo) [Example A94, Azetidin-3-ylmethyl 4-fluoro-4-(((trans-2-phenylcyclopropyl)amino)methyl)piperidine-1-carboxylate]	> 20 µM	0.039 ± 0.011 µM
FC1(CN[C@@H]2C[C@H]2c2ccccc2)CCN(Cc2ccsc2)CC1 (relative stereo) [Example A98, N-((4-Fluoro-1-(thiophen-3-ylmethyl)piperidin-4-yl)methyl)-trans-2-phenylcyclopropylamine]	> 20 µM	0.064 ± 0.026 µM
N#Cc1ccc(CN2CCC(F)(CN[C@@H]3C[C@H]3c3ccccc3)CC2)cc1 (relative stereo) [Example A96, 4-((4-Fluoro-4-(((trans-2-phenylcyclopropyl)amino)methyl)piperidin-1-yl)methyl)benzonitrile]	> 20 µM	0.159 ± 0.074 µM
O=C(CCC1CCCCC1)N1CCC(F)(CN[C@@H]2C[C@H]2c2ccccc2)CC1 (relative stereo) [Example A10, 3-cyclohexyl-1-(4-fluoro-4-(((trans-2-phenylcyclopropyl)amino)methyl)piperidin-1-yl)-1-propanone]	> 20 µM	0.6 ± 1.09 µM
O=S(=O)(CC1CCNCC1)N1CCC(F)(CNC2CC2c2ccccc2)CC1 (stereo not drawn) [Example A92, N-((4-Fluoro-1-(piperidin-4-ylmethyl)sulfonyl)piperidin-4-yl)methyl)-trans-2-phenylcyclopropylamine]	> 20 µM	0.132 ± 0.055 µM
O=C(O)c1ccc(CN2CCC(COC(=O)N3CCC(F)(CNC4CC4c4ccccc4)CC3)CC2)cc1 (centres unmarked) [Example A91]	> 20 µM	1.7 ± 0.83 µM
O=C(OCC1CCNCC1)N1CCC(F)(CN[C@H]2C[C@@H]2c2ccccc2)CC1 [(1S,2R)-A43]	> 20 µM	0.96 ± 0.444 µM
CC(C)(C)OC(=O)c1ccc(CN2CCC(F)(CNC3CC3c3ccc(-c4ccc(F)cc4)s3)CC2)cc1 (centres unmarked) [Example A105, Tert-butyl 4-((4-fluoro-4-(((2-(5-(4-fluorophenyl)thiophen-2-yl)cyclopropyl)amino)methyl)piperidin-1-yl)methyl)benzoate]	1.95 ± 0.6 µM	8.35 ± 0.71 µM
O=C(CCc1ccccc1)N1CCC(F)(CN[C@@H]2C[C@H]2c2ccccc2)CC1 (relative stereo) [Example A8, 1-(4-fluoro-4-(((trans-2-phenylcyclopropyl)amino)methyl)piperidin-1-yl)-3-phenyl-1-propanone]	> 20 µM	0.27 ± 0.37 µM
CC(C)(C)OC(=O)c1ccc(CN2CCC(F)(CNC3CC3c3ccc(-c4ccc(Cl)cc4)s3)CC2)cc1 (centres unmarked) [Example A106]	1.71 ± 0.22 µM	9.99 ± 1.5 µM
O=C(O)c1ccc(CN2CCC(F)(CN[C@@H]3C[C@H]3c3ccccc3)CC2)cc1 [(1R,2S)-A5, 4-((4-Fluoro-4-((((1R,2S)-2-phenylcyclopropyl)amino)methyl)piperidin-1-yl)methyl)benzoate]	> 20 µM	0.29 ± 0.19 µM
O=C(OC1CCNCC1)N1CCC(F)(CN[C@@H]2C[C@H]2c2ccccc2)CC1 (relative stereo) [Example A95, Piperidin-4-yl 4-fluoro-4-(((trans-2-phenylcyclopropyl)amino)methyl)piperidine-1-carboxylate]	> 20 µM	1.24 ± 0.844 µM

Results, then the molecule that gave them:

IC50 [1]	IC50 [2]	SMILES
15.4 ± 3.71 µM	6.51 ± 2.02 µM	O=C(OCC1CCNCC1)N1CCC(F)(CNC2CC2c2ccc(-c3cccc(C(F)(F)F)c3)nc2)CC1 (centres unmarked) [Example A117]
8.17 ± 0.35 µM	13 ± 0.42 µM	FC1(CN[C@@H]2C[C@H]2c2ccccc2)CCN(CCCC2CCCCC2)CC1 (relative stereo) [Example A14, N-((1-(3-Cyclohexylpropyl)-4-fluoropiperidin-4-yl)methyl)-trans-2-phenylcyclopropylamine]
> 20 µM	3 ± 5.19 µM	FC1(CN[C@@H]2C[C@H]2c2ccccc2)CCCCC1 (relative stereo) [Example A18, N-((1-Fluorocyclohexyl)methyl)-trans-2-phenylcyclopropylamine]
0.75 ± 0.15 µM	13 ± 1.9 µM	CC(C)(C)OC(=O)c1ccc(CN2CCC(F)(CNC3CC3c3ccc(-c4ccc(C(F)(F)F)cc4)s3)CC2)cc1 (centres unmarked) [Example A107, Tert-butyl 4-((4-fluoro-4-(((2-(5-(4-(trifluoromethyl)phenyl)thiophen-2-yl)cyclopropyl)amino)methyl)piperidin-1-yl)methyl)benzoate]
2.21 ± 0.63 µM	> 20 µM	CC(C)(C)OC(=O)c1ccc(CN2CCC(F)(CNC3CC3c3ccc(Br)s3)CC2)cc1 (centres unmarked) [Example A101, Tert-Butyl 4-((4-(((2-(5-bromothien-2-yl))cyclopropyl)amino)methyl)-4-fluoropiperidin-1-yl)methyl)benz Oate]
2.64 ± 0.97 µM	11.9 ± 2.04 µM	CC(C)(C)OC(=O)c1ccc(CN2CCC(F)(CNC3CC3c3ccc(-c4ccccc4)s3)CC2)cc1 (centres unmarked) [Example A108, Tert-butyl 4-((4-fluoro-4-(((2-(5-phenylthiophen-2-yl)cyclopropyl)amino)methyl)piperidin-1-yl)methyl)benzoate]
> 20 µM	–	CNC1CCC(F)(CNC2CC2c2ccccc2)CC1 (stereo not drawn) [Example A11, 4-fluoro-N-methyl-4-(((trans-2-phenylcyclopropyl)amino)methyl)cyclohexane-1-amine]
> 20 µM	2.57 ± 1.66 µM	O=C(NC1CCC(F)(CNC2CC2c2ccccc2)CC1)OCc1ccccc1 (stereo not drawn) [Example A19, Benzyl 4-fluoro-4-((trans-2-phenylcyclopropyl)amino)methyl)cyclohexyl)carbamate]
> 20 µM	> 20 µM	COc1ccc(-c2ccc(C3CC3NCC3(F)CCN(C(=O)OCC4CCNCC4)CC3)cn2)cc1 (centres unmarked) [Example A112, Piperidin-4-ylmethyl 4-fluoro-4-(((2-(6-(4-methoxyphenyl)pyridin-3-yl)cyclopropyl)amino)methyl)piperidine-1-carboxylate]
2.59 ± 0.14 µM	5.93 ± 0.35 µM	O=C(OCC1CCNCC1)N1CCC(F)(CNC2CC2c2ccc(-c3ccc(C(F)(F)F)cc3)s2)CC1 (centres unmarked) [Example A110, Piperidin-4-ylmethyl 4-fluoro-4-(((2-(5-(4-(trifluoromethyl)phenyl)thiophen-2-yl)cyclopropyl)amino)methyl) piperidine-1-carboxylate]
15.3 ± 0.78 µM	7.84 ± 0.35 µM	N#Cc1ccc(C#Cc2ccc(C3CC3NCC3(F)CCN(C(=O)OCC4CCNCC4)CC3)s2)cc1 (centres unmarked) [Example A114, Piperidin-4-ylmethyl 4-(((2-(5-((4-cyanophenyl)ethynyl)thiophen-2-yl)cyclopropyl)amino)methyl)-4-fluoropiperidine-1-carboxylate]
> 20 µM	11 ± 0.978 µM	O=C(OCC1CCNCC1)N1CCC(F)(CNC2CC2c2ccc(-c3ccccc3)nc2)CC1 (centres unmarked) [Example A115, Piperidin-4-ylmethyl 4-fluoro-4-(((2-(6-phenylpyridin-3-yl)cyclopropyl)amino)methyl)piperidine-1-carboxylate]
